The text below walks through data of patent US20090208936A1, “IDENTIFICATION OF MOLECULAR INTERACTIONS AND THERAPEUTIC USES THEREOF” (Univeristy of Florida Research Foundations Inc., priority 2005, published 2009).

{6-FAM} = 6-carboxyfluorescein label; {Dabcyl} = Dabcyl quencher

In data set [1] the target is T1, α-thrombin (Homo sapiens, UniProt P00734).
T1 construct: Human oa-thrombin (M.W. ˜36.7 kDa); purchased Haematologic Technologies Inc. (Essex Junction, Vt.)
Description: FRET-based signaling aptamer binding to α-thrombin (6-FAM quenching). The settings on record: 100 nM aptamer, 500 nM α-thrombin. From the text:
Dye-labeled aptamers were obtained from Integrated DNA Technologies, Inc. (Coralville, Iowa). The sequences of the 15mer and 27mer thrombin-aptamer are 5′-GGT TGG TGT GGT TGG-3′ (SEQ ID NO 1), and 5′-ACCCGTGGTAGGGTAGGATGGGGTGGT-3′ (SEQ ID NO 2) respectively. For FRET-based assays, both aptamers were dual-labeled with 6-FAM at the 5′ end and Dabcyl at the 3′ end. For fluorescence anisotropy assays, both aptamer sequences were labeled with only TAMRA at the 3′ end. A control 15mer aptamer was labeled with only 6-FAM at the 3′ end. All aptamers were purified with HPLC. […]
Fluorescence measurements were performed on a Fluorolog-3 spectrofluorometer (Jobin Yvon Inc., Edison, N.J.). For FRET-based assays, the fluorescence of 6-FAM was monitored with an excitation wavelength of 488 mn and an emission wavelength of 515 nm. For anisotropy-based experiments, the fluorescence of TAMRA was monitored with 555 nm as the excitation and 580 mn as the emission wavelength. […] In the aptamer/thrombin binding experiments, a very small volume of α-thrombin at a high concentration was added to an aptamer solution in the cuvette to make a molar ratio of aptamer and thrombin 1:1, and the fluorescence signals were recorded before and after the addition. […]

Data set [2] deals with T2, thrombin (Homo sapiens, UniProt P00734).
T2 construct: Human oa-thrombin (M.W. ˜36.7 kDa); purchased Haematologic Technologies Inc. (Essex Junction, Vt.)
As to the kind of experiment: Kinetic studies of competitive assays (order of incubation, concentration dependence). The format is binding. The settings on record: 100 nM FQ-15Ap, 100 nM thrombin, 500 nM HirF, 5° C., 6-FAM fluorescence. The procedure:
Experiments were conducted in a 100 μL cuvette in the spectrofluorometer. While the detection system was running, the reaction samples were quickly mixed together. Data were recorded from the point of mixing to when the signal reached the plateau and stabilized. The reaction was regarded completed when the signal was at the plateau. […] The temperatures of reactions were maintained using a RTE-111 water bath/circulator (Neslab Instruments, Inc., Newington, N.H.).
In order to evaluate the possibilities of such false negatives in the assays, a comparison of the reaction rates of aptamer and prey proteins with thrombin were conducted. One direct way to conduct the comparison is to change the order the aptamer and the prey protein are incubated with thrombin. In one experiment, the prey protein was incubated with thrombin first and then the aptamer was used to displace the prey protein from the thrombin/protein complex. In another experiment, the order of adding aptamer and prey protein to thrombin was reversed. […]
Another indirect method was also used to study the effects of aptamer on thrombin/protein interactions. […] Different concentrations of AT3 were added to thrombin/T-15Ap incubation solution and the anisotropy of the aptamer was monitored as AT3 would displace T-15Ap.

In data set [3] the target is T1, α-thrombin. The conditions noted are these: stated as known property; cited from earlier work.
Data set [4] has as its target T1, α-thrombin. The conditions noted are these: reported value used for the calculation; read-out: reported 15mer aptamer-thrombin Kd/AT; cited from earlier work.
The target in data set [5] is T1, α-thrombin. As to the kind of experiment: Fluorescence anisotropy of TAMRA-labeled aptamer on binding α-thrombin. The conditions noted are these: aptamer/α-thrombin 1:1. The procedure: Fluorescence measurements were performed on a Fluorolog-3 spectrofluorometer (Jobin Yvon Inc., Edison, N.J.). For FRET-based assays, the fluorescence of 6-FAM was monitored with an excitation wavelength of 488 mn and an emission wavelength of 515 nm. For anisotropy-based experiments, the fluorescence of TAMRA was monitored with 555 nm as the excitation and 580 mn as the emission wavelength. Slit widths were varied to yield the best signals. All measurements were carried out in a 100 μL cuvette. In the aptamer/thrombin binding experiments, a very small volume of α-thrombin at a high concentration was added to an aptamer solution in the cuvette to make a molar ratio of aptamer and thrombin 1:1, and the fluorescence signals were recorded before and after the addition. […]
where the subscripts V and H refer to the orientation (vertical or horizontal) of the polarizers for the intensity measurements, with the first subscript indicating the position of the excitation polarizer and the second for the emission polarizer. G is the G-factor of the spectrofluorometer, which is calculated as G=IHV/IHH. […] For a certain dye, the G-factor would be measured and used throughout the experiments that used the same dye. […] For TAMRA, all intensities were measured at an emission wavelength of 580 nm with an excitation wavelength of 555 nm. […]

Turning to “5′-(6-FAM)-ACCCGTGGTAGGGTAGGATGGGGTGGT-(Dabcyl)-3′ [FQ-27Ap]”, the “6-FAM fluorescence change upon addition of α-thrombin” value in data set [1] is on record as “decreased 6-FAM fluorescence”.
As to “5′-(6-FAM)-GGT TGG TGT GGT TGG-(Dabcyl)-3′ (DNA GGTTGGTGTGGTTGG; DNA, 5' {6-FAM}, 3' {Dabcyl}, backbone not given here) [FQ-15Ap, 15mer thrombin aptamer dual-labeled with 6-FAM at the 5′ end and Dabcyl at the 3′ end]”, the “kinetic profile depending on order of incubation with thrombin” value in data set [2] is reported as “aptamer replacing HirF was even slower than HirF replacing aptamer”. Moreover, the “drop of 6-FAM fluorescence when excess α-thrombin was added” value in data set [1] (room temperature, 50 mM NaCl buffer) was “about 55%”.
For 5′-GGT TGG TGT GGT TGG-3′ [15Ap], the “capability to inhibit the enzymatic activity of thrombin” value in data set [3] was “has the protein-inhibition capability”. The Kd in data set [4] was 75 nM.
As to “5′-ACCCGTGGTAGGGTAGGATGGGGTGGT-3′ (DNA ACCCGTGGTAGGGTAGGATGGGGTGGT; chemistry not given here) [27Ap]”, the “capability to inhibit the enzymatic activity of thrombin” value in data set [3] is “does not”.
For the substance “5′-GGT TGG TGT GGT TGG-(TAMRA)-3′ [T-15Ap]”, in data set [5], the “increase of anisotropy on mixing with α-thrombin” value was “more than 30%”.
